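Compound exposure: 48 hours, 5 concentrations, 96-well plates. GI50 is the concentration that inhibits growth by half. TGI is the concentration that stops growth completely.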
Assays:
Assay in all cases: inhibition of tumour cell growth, NCI panel, 48 h
OVCAR-8 ovarian = test system: OVCAR-8 ovarian
UACC-257 melanoma = test system: UACC-257 melanoma
HT29 colon = test system: HT29 colon
HCC-2998 colon = test system: HCC-2998 colon
SF-268 CNS = test system: SF-268 CNS
SK-MEL-28 melanoma = test system: SK-MEL-28 melanoma
HOP-62 NSCLC = test system: HOP-62 NSCLC
SF-539 CNS = test system: SF-539 CNS
M14 melanoma = test system: M14 melanoma
MALME-3M melanoma = test system: MALME-3M melanoma

CC[C@@H](C)/C=C(C)/C=C/C(=O)c1c(O)c(-c2ccc(O)cc2)cn(OC2CC(=O)CCC(C)OC(=O)CC2O)c1=O (stereo not given in full)
GI50 (OVCAR-8 ovarian): 354 nM | TGI (OVCAR-8 ovarian): 22800 nM | GI50 (UACC-257 melanoma): 368 nM | TGI (UACC-257 melanoma): 8870 nM | GI50 (HT29 colon): 3470 nM | TGI (HT29 colon): 14100 nM | GI50 (HCC-2998 colon): 2530 nM | TGI (HCC-2998 colon): 13600 nM | GI50 (SF-268 CNS): 282 nM | TGI (SF-268 CNS): 9390 nM | GI50 (SK-MEL-28 melanoma): 552 nM | TGI (SK-MEL-28 melanoma): 19500 nM | GI50 (HOP-62 NSCLC): 356 nM | TGI (HOP-62 NSCLC): 12900 nM | GI50 (SF-539 CNS): 366 nM | TGI (SF-539 CNS): 3840 nM | GI50 (M14 melanoma): 258 nM | TGI (M14 melanoma): 2380 nM | GI50 (MALME-3M melanoma): 305 nM | TGI (MALME-3M melanoma): 6800 nM

Cc1cc(-c2cc(OC(=O)c3ccccc3)ccc2Cl)cc2nnc(Nc3ccc(OCCN4CCCC4)cc3)nc12
GI50 (OVCAR-8 ovarian): 1700 nM | TGI (OVCAR-8 ovarian): 3670 nM | GI50 (UACC-257 melanoma): 1620 nM | TGI (UACC-257 melanoma): 3140 nM | GI50 (HT29 colon): 1610 nM | TGI (HT29 colon): 3040 nM | GI50 (HCC-2998 colon): 1810 nM | TGI (HCC-2998 colon): 3370 nM | GI50 (SF-268 CNS): 1880 nM | TGI (SF-268 CNS): 3750 nM | GI50 (SK-MEL-28 melanoma): 1500 nM | TGI (SK-MEL-28 melanoma): 2930 nM | GI50 (HOP-62 NSCLC): 1550 nM | TGI (HOP-62 NSCLC): 3270 nM | GI50 (SF-539 CNS): 1290 nM | TGI (SF-539 CNS): 2570 nM | GI50 (M14 melanoma): 1640 nM | TGI (M14 melanoma): 3240 nM | GI50 (MALME-3M melanoma): 1450 nM | TGI (MALME-3M melanoma): 2930 nM

COC(=O)C(C(=O)C(=O)Nc1ccccc1C)c1nc2ccc([N+](=O)[O-])cc2[nH]c1=O (stereo not given)
TGI (OVCAR-8 ovarian): > 100000 nM | TGI (UACC-257 melanoma): > 100000 nM | TGI (HT29 colon): > 100000 nM | TGI (HCC-2998 colon): > 100000 nM | TGI (SF-268 CNS): > 100000 nM | TGI (SK-MEL-28 melanoma): > 100000 nM | TGI (HOP-62 NSCLC): > 100000 nM | TGI (SF-539 CNS): > 100000 nM | TGI (M14 melanoma): > 100000 nM | TGI (MALME-3M melanoma): > 100000 nM

COc1c(B(O)O)cccc1-c1nc2c(F)cc3n[nH]c(C)c3c2c2c1CCCC2
GI50 (OVCAR-8 ovarian): 1220 nM | TGI (OVCAR-8 ovarian): > 50000 nM | GI50 (UACC-257 melanoma): 2080 nM | TGI (UACC-257 melanoma): > 40800 nM | GI50 (HT29 colon): 1950 nM | TGI (HT29 colon): > 50000 nM | GI50 (HCC-2998 colon): 2450 nM | TGI (HCC-2998 colon): 48500 nM | GI50 (SF-268 CNS): 666 nM | TGI (SF-268 CNS): 49300 nM | GI50 (SK-MEL-28 melanoma): 2100 nM | TGI (SK-MEL-28 melanoma): > 38800 nM | GI50 (HOP-62 NSCLC): 303 nM | TGI (HOP-62 NSCLC): > 50000 nM | GI50 (SF-539 CNS): 212 nM | TGI (SF-539 CNS): 2970 nM | GI50 (M14 melanoma): 2280 nM | TGI (M14 melanoma): 8930 nM | GI50 (MALME-3M melanoma): 2500 nM | TGI (MALME-3M melanoma): 7730 nM

O=C1OCC2=C1C(c1cccc(Cl)c1)c1cc3c(cc1N2CCO)CCC3 (stereo not given)
GI50 (OVCAR-8 ovarian): 57.7 nM | TGI (OVCAR-8 ovarian): 2980 nM | GI50 (UACC-257 melanoma): 35.4 nM | TGI (UACC-257 melanoma): 15600 nM | GI50 (HT29 colon): 31.3 nM | TGI (HT29 colon): 95 nM | GI50 (HCC-2998 colon): 92.2 nM | TGI (HCC-2998 colon): 2930 nM | GI50 (SF-268 CNS): 65.3 nM | TGI (SF-268 CNS): 10500 nM | GI50 (SK-MEL-28 melanoma): 57.4 nM | TGI (SK-MEL-28 melanoma): 20200 nM | GI50 (HOP-62 NSCLC): 47.8 nM | TGI (HOP-62 NSCLC): 14400 nM | GI50 (SF-539 CNS): 36.1 nM | TGI (SF-539 CNS): 7530 nM | GI50 (M14 melanoma): 36.6 nM | TGI (M14 melanoma): 4460 nM | GI50 (MALME-3M melanoma): 49.4 nM | TGI (MALME-3M melanoma): 22700 nM

O=C(N/N=C/c1ccncc1)c1ccc(F)cc1
GI50 (OVCAR-8 ovarian): > 40000 nM | TGI (OVCAR-8 ovarian): > 40000 nM | GI50 (UACC-257 melanoma): > 40000 nM | TGI (UACC-257 melanoma): > 40000 nM | GI50 (HT29 colon): > 40000 nM | TGI (HT29 colon): > 40000 nM | GI50 (HCC-2998 colon): > 40000 nM | TGI (HCC-2998 colon): > 40000 nM | GI50 (SF-268 CNS): > 40000 nM | TGI (SF-268 CNS): > 40000 nM | GI50 (SK-MEL-28 melanoma): > 40000 nM | TGI (SK-MEL-28 melanoma): > 40000 nM | GI50 (HOP-62 NSCLC): > 40000 nM | TGI (HOP-62 NSCLC): > 40000 nM | GI50 (SF-539 CNS): > 40000 nM | TGI (SF-539 CNS): > 40000 nM | GI50 (M14 melanoma): > 40000 nM | TGI (M14 melanoma): > 40000 nM | GI50 (MALME-3M melanoma): > 40000 nM | TGI (MALME-3M melanoma): > 40000 nM
